Assay results taken from US20210186999A1, “METHOD FOR TREATMENT OF CANCER” (National University of Ireland Galway, priority 2017, published 2021).

Experiments:
[1] = tested on: nitric oxide (NO), prostaglandin E2 (PGE2), IL-10 in MLR supernatant; assay: ELISA and Griess assay of immunomodulatory molecules in supernatant of mixed lymphocyte reaction; assay type: cell-based, BALB/c; details: MSCs cultured with 100 μM inhibitor, FIGS. 4(a)-4(c)
Description: Sialic acid content was assayed using lectin coupled flow cytometry. Biotin labelled SNA-I and MAL-II were used to detect a 2-6 sialic acid and a 2-3 sialic acid respectively. Sialyltransferase inhibition was carried out using 100 μM of 3Fax-Peracetyl Neu5Ac. Cells were cultured in the presence of the inhibitor for two successive passages to ensure inhibition.
Both ELISA and the Griess assay were used to determine quantity of immunomodulatory molecules in the supernatant of mixed lymphocyte reaction experiments.

[2] = tested on: TNF-α+IL-1β treated MSCs co-cultured with activated T-cells; assay: MSC : T-cell co-culture in mixed lymphocyte reactions (MLRs), flow cytometry; assay type: cell-based, BALB/c; details: MSCs cultured with 100 μM inhibitor for two successive passages; MLR co-culture 96 hrs; FIGS. 3(a)-3(c)
Description: Materials and Methods Four female BALB/c at approximately 5 to 7 weeks were euthanized and the femur and tibia was dissected and placed in a 50 ml tube with media or PBS. Using a forceps and scissors the bones were cleaned to remove muscles and snipped on both ends to plunge out the marrow into a Petri dish containing MSC medium. A 30G needle fitted on a 1 ml syringe was used to plunge out the marrow and repeated several times till the bones appeared white. The marrow was passed through a 40 μm sieve attached to a 50 ml tube and the sieve was washed twice with medium. Medium was changed, and a cell count was performed. 10 μl cells was mixed with 40 μl PBS and 10 μl 4% acetic acid and cell count was performed. Based on the count approximately 35-50 million cells were seeded per T175 cm flask or 1 animal per flask. After isolation and culturing the MSCs were extensively characterized in vitro before and after treatment with TNF-α+IL-1β.
Sialic acid content was assayed using lectin coupled flow cytometry. Biotin labelled SNA-I and MAL-II were used to detect a 2-6 sialic acid and a 2-3 sialic acid respectively. Sialyltransferase inhibition was carried out using 100 μM of 3Fax-Peracetyl Neu5Ac. […]
MSC and TNF-α+IL-1βMSC were co-cultured at different MSC: T-cell ratios for 96 hrs. T-cell proliferation, activation, death and differentiation were determined by flow cytometry.

## COC(=O)C1(OC(C)=O)OC(C(OC(C)=O)C(COC(C)=O)OC(C)=O)C(NC(C)=O)C(OC(C)=O)C1F (stereo not drawn) [3Fax-Peracetyl Neu5Ac]
[1]
  dependence of restored T-cell proliferation on NO, PGE2 and IL-10: independent of nitric oxide (NO), prostaglandin E2 (PGE2), and IL-10
[2]
  proliferation of T-cells (CD4+, CD8+) in co-culture with inhibitor-treated MSCs: restored proliferation of T-cells
  suppression of activated T-cells by TNF-α+IL-1β treated MSCs exposed to the sialyltransferase inhibitor: not as effective at suppressing activated T-cells
